# Assay results: patent US20130177609A1, “Compositions and Methods for Increasing Bioavailability of Topical Ophthalmic Drugs” (priority 2008, published 2013)
# Columns and labels:
# [1] = Example 1: ocular tissue pharmacokinetics after topical dose, increasing dose volume at constant drug concentration; assay type: in vivo, pigmented male rabbits (Dutch Belted); conditions: for AUC(0-t) / DNAUC / Cmax / Tmax: topical ocular; for Cmax / Tmax: male, Dutch Belted, rabbit, topical or ocular
# Experimental: An aqueous suspension comprising 0.1 mg/mL of the compound having Formula III (BOL-303242-X), 100 mg/mL PEG 3350, and 10 mg/mL Tween® 80 was prepared substantially as disclosed above.
# This study was carried out using a non-crossover design and a total of 84 naive pigmented male rabbits (Dutch Belted). Each rabbit was arbitrarily assigned to one of three dose groups.
# On the day of dosing, each animal received a topical ocular dose of the suspension. Animals in Group 1 received a […] instillation, Group 2 received a 30-μL instillation and Group 3 received a 100-μL instillation. The target dose levels for these groups were 1, 3 and 10 μg/eye, respectively. The test composition was shipped to the test site as a ready-to-use suspension.
# At predetermined time intervals after dosing, rabbits (four per collection time) were euthanized and the eyes enucleated and dissected. Samples of tear, conjunctiva, cornea, aqueous humor and iris/ciliary body were obtained from each animal and frozen until being shipped on dry ice to the analytical laboratory. Samples were collected at 0.0833, 0.25, 0.5, 1, 2, 4 and 6 hour after dosing. Concentrations of BOL-303242-X in ocular tissue samples were determined by LC/MS/MS. One or more samples of each tissue had concentrations that were below the lower limit of quantitation (“LLQ”). These samples were assigned a value of 0.5 times the LLQ for the purpose of calculating a mean concentration for pharmacokinetic (“PK”) analysis. In addition, the BOL-303242-X concentration measured in one tear sample collected at 6 hour was more than 100-fold higher than any other 6-hour sample for the same dose group. This value was considered to be an outlier, and was not included in any calculations.
# Non-compartmental methods were used for pharmacokinetic analysis of concentration versus time data (WinNonlin version 5.2). Due to the destructive sampling regimen employed in this study average composite data were used in the PK analysis.
# [2] = Solubility in water of compound having Formula III; assay type: physicochemical; conditions: pH 7, water, pH of about 7
# [3] = Conjunctiva, 10 μL of 0.1 mg/mL suspension (1 μg)
# [4] = Conjunctiva, 30 μL of 0.1 mg/mL suspension (3 μg)
# [5] = Conjunctiva, 100 μL of 0.1 mg/mL suspension (10 μg)
# [6] = Cornea, 10 μL of 0.1 mg/mL suspension (1 μg)
# [7] = Cornea, 30 μL of 0.1 mg/mL suspension (3 μg)
# [8] = Cornea, 100 μL of 0.1 mg/mL suspension (10 μg)
# [9] = Iris/Ciliary Body, 10 μL of 0.1 mg/mL suspension (1 μg)
# [10] = Iris/Ciliary Body, 30 μL of 0.1 mg/mL suspension (3 μg)
# [11] = Iris/Ciliary Body, 100 μL of 0.1 mg/mL suspension (10 μg)
# [12] = Tear, 10 μL of 0.1 mg/mL suspension (1 μg)
# [13] = Tear, 30 μL of 0.1 mg/mL suspension (3 μg)
# [14] = Tear, 100 μL of 0.1 mg/mL suspension (10 μg)
# [15] = 1 ug, Conjunctiva, 10 μL of 0.1 mg/mL suspension (1 μg)
# [16] = 1 ug, Cornea, 10 μL of 0.1 mg/mL suspension (1 μg)
# [17] = 1 ug, Iris/Ciliary Body, 10 μL of 0.1 mg/mL suspension (1 μg)
# [18] = 1 ug, Tear, 10 μL of 0.1 mg/mL suspension (1 μg)
# [19] = 3 ug, Conjunctiva, 30 μL of 0.1 mg/mL suspension (3 μg)
# [20] = 3 ug, Cornea, 30 μL of 0.1 mg/mL suspension (3 μg)
# [21] = 3 ug, Iris/Ciliary Body, 30 μL of 0.1 mg/mL suspension (3 μg)
# [22] = 3 ug, Tear, 30 μL of 0.1 mg/mL suspension (3 μg)
# [23] = 10 ug, Conjunctiva, 100 μL of 0.1 mg/mL suspension (10 μg)
# [24] = 10 ug, Cornea, 100 μL of 0.1 mg/mL suspension (10 μg)
# [25] = 10 ug, Iris/Ciliary Body, 100 μL of 0.1 mg/mL suspension (10 μg)
# [26] = 10 ug, Tear, 100 μL of 0.1 mg/mL suspension (10 μg)
smiles,measurement,setting,value
Cc1ccc2c(NCC(O)(CC(C)(C)c3cc(F)cc4c3OCC4)C(F)(F)F)cccc2n1 (centres unmarked) [BOL-303242-X],AUC(0-t),[1]; [3],245 ng·h/g
same,DNAUC,[1]; [3],245 ng*hr/g ÷ μg dose
same,AUC(0-t),[1]; [4],487 ng·h/g
same,DNAUC,[1]; [4],162 ng*hr/g ÷ μg dose
same,AUC(0-t),[1]; [5],741 ng·h/g
same,DNAUC,[1]; [5],74.1 ng*hr/g ÷ μg dose
same,AUC(0-t),[1]; [6],270 ng·h/g
same,DNAUC,[1]; [6],270 ng*hr/g ÷ μg dose
same,AUC(0-t),[1]; [7],634 ng·h/g
same,DNAUC,[1]; [7],211 ng*hr/g ÷ μg dose
same,AUC(0-t),[1]; [8],955 ng·h/g
same,DNAUC,[1]; [8],95.5 ng*hr/g ÷ μg dose
same,AUC(0-t),[1]; [9],32.0 ng·h/g
same,DNAUC,[1]; [9],32.0 ng*hr/g ÷ μg dose
same,AUC(0-t),[1]; [10],33.8 ng·h/g
same,DNAUC,[1]; [10],11.3 ng*hr/g ÷ μg dose
same,AUC(0-t),[1]; [11],30.5 ng·h/g
same,DNAUC,[1]; [11],3.05 ng*hr/g ÷ μg dose
same,AUC(0-t),[1]; [12],8870 ng·h/g
same,DNAUC,[1]; [12],8870 ng*hr/g ÷ μg dose
same,AUC(0-t),[1]; [13],12600 ng·h/g
same,DNAUC,[1]; [13],4200 ng*hr/g ÷ μg dose
same,AUC(0-t),[1]; [14],25600 ng·h/g
same,DNAUC,[1]; [14],2560 ng*hr/g ÷ μg dose
same,Cmax,"[1]; 1 ug, Aqueous Humor, 10 μL of 0.1 mg/mL suspension (1 μg)",< 1 ng/mL
same,Cmax,[1]; [15],292 ± 137 ng/g
same,Tmax,[1]; [15],4.98 min
same,Cmax,[1]; [16],288 ± 116 ng/g
same,Tmax,[1]; [16],15 min
same,Cmax,[1]; [17],19.6 ± 29.8 ng/g
same,Tmax,[1]; [17],60 min
same,Cmax,[1]; [18],16300 ± 7000 ng/g
same,Tmax,[1]; [18],4.98 min
same,Cmax,"[1]; 3 ug, Aqueous Humor, 30 μL of 0.1 mg/mL suspension (3 μg)",< 1 ng/mL
same,Cmax,[1]; [19],684 ± 446 ng/g
same,Tmax,[1]; [19],4.98 min
same,Cmax,[1]; [20],716 ± 234 ng/g
same,Tmax,[1]; [20],4.98 min
same,Cmax,[1]; [21],13.1 ± 19 ng/g
same,Tmax,[1]; [21],120 min
same,Cmax,[1]; [22],28100 ± 11300 ng/g
same,Tmax,[1]; [22],15 min
same,Cmax,"[1]; 10 ug, Aqueous Humor, 100 μL of 0.1 mg/mL suspension (10 μg)",< 1 ng/mL
same,Cmax,[1]; [23],1050 ± 531 ng/g
same,Tmax,[1]; [23],4.98 min
same,Cmax,[1]; [24],955 ± 619 ng/g
same,Tmax,[1]; [24],4.98 min
same,Cmax,[1]; [25],11.3 ± 8.05 ng/g
same,Tmax,[1]; [25],60 min
same,Cmax,[1]; [26],36700 ± 21400 ng/g
same,Tmax,[1]; [26],15 min
same,increase in exposure with increasing instillation volume,"[1]; tear, cornea and conjunctiva, 10, 30, 100 μL of 0.1 mg/mL",less than proportional to the administered dose/volume
same,solubility,[2],~0.2 µg/mL
